The values that follow come from patent US11053230B2, “3-hydroxy-imidazolidin-4-one compounds as inhibitors of indoleamine 2,3-dioxygenase” (Netherlands Translational Research Center B.V., priority 2017, dated 2021).

Molecules are shown by their SMILES. Where “and” joins values, the source holds several entries; their conditions need not be identical. Equal values may be shown once.

For orientation: IC50 means the concentration that inhibits the measured activity by half.

The target of the assay is T1, IDO1 (Homo sapiens, UniProt P14902).
T1 construct: Recombinant full-length IDO1 (Seegers, N., et al.) and all other assay components were diluted in IDO1 reaction buffer; made in house
T1 sequence (P14902 whole entry): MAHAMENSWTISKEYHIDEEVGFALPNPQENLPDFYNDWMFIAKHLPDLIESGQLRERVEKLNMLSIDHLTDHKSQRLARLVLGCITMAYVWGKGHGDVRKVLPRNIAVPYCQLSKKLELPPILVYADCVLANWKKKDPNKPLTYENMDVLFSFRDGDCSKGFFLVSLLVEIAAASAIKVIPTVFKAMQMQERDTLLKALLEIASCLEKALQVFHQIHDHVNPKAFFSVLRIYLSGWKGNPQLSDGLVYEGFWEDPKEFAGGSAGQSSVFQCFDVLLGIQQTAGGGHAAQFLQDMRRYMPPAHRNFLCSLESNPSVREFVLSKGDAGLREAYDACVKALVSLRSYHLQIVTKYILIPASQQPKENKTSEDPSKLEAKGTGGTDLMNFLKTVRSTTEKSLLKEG
Nature of the assay: Biochemical IDO1 assay (NFK GreenScreen). As to conditions: NFK GreenScreen; 25 nM IDO1, 100 μM L-tryptophan; read-out: IC50, inhibitory potency on IDO1. As to the method:
Inhibition of IDO1 activity can be measured by determining the enzymatic conversion of L-tryptophan into N-formylkynurenine (NFK) in a reaction mixture containing IDO1 and test compound. The formation of NFK can be detected directly by, for instance, high-performance liquid chromatography (HPLC) methods, or by intrinsic fluorescence.
Compounds were serially diluted in dimethylsulfoxide (DMSO) and finally in IDO1 reaction buffer, consisting of 50 mM NaH2PO4, pH7.0, supplemented with 0.05% Tween-20 (cat. No. P7949; Sigma Aldrich) and 1% glycerol. Recombinant full-length IDO1 (Seegers, N., et al.) and all other assay components were diluted in IDO1 reaction buffer. […] Subsequently, 10 μl of 0.4 mM of the substrate L-tryptophan was added, i.e., the final concentration of L-tryptophan was 100 μM. The DMSO concentration in the assay was 0.3%. […] Incubation was continued for 60 min at room temperature. Then, 10 μl of NFK Green™ (NTRC, Oss, The Netherlands) was added, the plate was sealed, and the reaction was developed for 3 hours at 37° C. To determine the production of N-formyl kynurenine (NFK), the seal was removed and fluorescence was read on an EnVision multimode reader (Perkin Elmer, Waltham, Mass., USA). IC50 were calculated using XLfit™ software (ID Business Solutions, Ltd., Surrey, U.K.).
On to `COc1ccc(F)c(C(=O)N2CC(=O)N(O)C2c2cc(Br)cs2)c1F` (stereo not drawn) [Example 75, 2-(4-Bromo-2-thienyl)-1-(2,6-difluoro-3-methoxy-benzoyl)-3-hydroxy-imidazolidin-4-one], for which the IC50 is no more than 1000 nM.
The figure for `O=C1CN(C(=O)c2c(F)ccc(C(F)(F)F)c2F)C(c2cc(Br)cs2)N1O` (stereo not drawn) [Example 76, 2-(4-Bromo-2-thienyl)-1-[2,6-difluoro-3-(trifluoromethyl)benzoyl]-3-hydroxy-imidazolidin-4-one] is no more than 1000 nM; for `Cc1ccc(F)c(C(=O)N2CC(=O)N(O)C2c2cc(Br)cs2)c1F` (stereo not drawn) [Example 77, 2-(4-Bromo-2-thienyl)-1-(2,6-difluoro-3-methyl-benzoyl)-3-hydroxy-imidazolidin-4-one] it is no more than 1000 nM; for `O=C1CN(C(=O)c2c(F)cc(C#CC3CCCCC3)cc2F)C(c2cc(Br)cs2)N1O` (stereo not drawn) [Example 78, 2-(4-Bromo-2-thienyl)-1-[4-(2-cyclohexylethynyl)-2,6-difluoro-benzoyl]-3-hydroxy-imidazolidin-4-one] it is no more than 1000 nM.
The figure for `NCC#Cc1cc(F)c(C(=O)N2CC(=O)N(O)C2c2cc(Br)cs2)c(F)c1` (stereo not drawn) [Example 79, 1-[4-(3-Aminoprop-1-ynyl)-2,6-difluoro-benzoyl]-2-(4-bromo-2-thienyl)-3-hydroxy-imidazolidin-4-one] is no more than 1000 nM.
On to `NS(=O)(=O)NCC#Cc1cc(F)c(C(=O)N2CC(=O)N(O)C2c2cc(Br)cs2)c(F)c1` (stereo not drawn) [Example 80, 2-(4-Bromo-2-thienyl)-1-[2,6-difluoro-4-[3-(sulfamoylamino)prop-1-ynyl]benzoyl]-3-hydroxy-4-oxo-imidazolidine], for which the IC50 is no more than 1000 nM.
To `CC(C)(N)C#Cc1cc(F)c(C(=O)N2CC(=O)N(O)C2c2cc(Br)cs2)c(F)c1` (stereo not drawn) [Example 81, 1-[4-(3-Amino-3-methyl-but-1-ynyl)-2,6-difluoro-benzoyl]-2-(4-bromo-2-thienyl)-3-hydroxy-imidazolidin-4-one] belongs no more than 1000 nM.
`O=C1CN(C(=O)c2c(F)cc(C3CC3)cc2F)C(c2cc(Br)cs2)N1O` (stereo not drawn) [Example 82, 2-(4-Bromo-2-thienyl)-1-(4-cyclopropyl-2,6-difluoro-benzoyl)-3-hydroxy-imidazolidin-4-one]: the IC50 was no more than 1000 nM.
To `C=Cc1cc(F)c(C(=O)N2CC(=O)N(O)C2c2cc(Br)cs2)c(F)c1` (stereo not drawn) [Example 83, 2-(4-Bromo-2-thienyl)-1-(2,6-difluoro-4-vinyl-benzoyl)-3-hydroxy-imidazolidin-4-one] belongs no more than 1000 nM; to `Cc1cc(F)c(C(=O)N2CC(=O)N(O)C2c2cc(Br)cs2)c(F)c1` (stereo not drawn) [Example 84, 2-(4-Bromo-2-thienyl)-1-(2,6-difluoro-4-methyl-benzoyl)-3-hydroxy-imidazolidin-4-one], no more than 1000 nM; to `O=C1CN(C(=O)c2c(F)cc(-c3ccccc3)cc2F)C(c2cc(Br)cs2)N1O` (stereo not drawn) [Example 85, 2-(4-Bromo-2-thienyl)-1-(2,6-difluoro-4-phenyl-benzoyl)-3-hydroxy-imidazolidin-4-one], no more than 1000 nM.
The figure for `Cn1cc(-c2cc(F)c(C(=O)N3CC(=O)N(O)C3c3cc(Br)cs3)c(F)c2)cn1` (stereo not drawn) [Example 86, 2-(4-Bromo-2-thienyl)-1-[2,6-difluoro-4-(1-methylpyrazol-4-yl)benzoyl]-3-hydroxy-imidazolidin-4-one] is no more than 1000 nM.
To `O=C1CN(C(=O)c2c(F)cc(-c3cccs3)cc2F)C(c2cc(Br)cs2)N1O` (stereo not drawn) [Example 87, 2-(4-Bromo-2-thienyl)-1-[2,6-difluoro-4-(2-thienyl)benzoyl]-3-hydroxy-imidazolidin-4-one] belongs no more than 1000 nM; to `O=C1CN(C(=O)c2c(F)cc(-c3cccnc3)cc2F)C(c2cc(Br)cs2)N1O` (stereo not drawn) [Example 88, 2-(4-Bromo-2-thienyl)-1-[2,6-difluoro-4-(3-pyridyl)benzoyl]-3-hydroxy-imidazolidin-4-one], no more than 1000 nM.
For the molecule `NC1(C#Cc2cc(F)c(C(=O)N3CC(=O)N(O)C3c3cc(Br)cs3)c(F)c2)CC1` (stereo not drawn) [Example 89, 1-[4-[2-(1-Aminocyclopropyl)ethynyl]-2,6-difluoro-benzoyl]-2-(4-bromo-2-thienyl)-3-hydroxy-imidazolidin-4-one], the IC50 is no more than 1000 nM.
To `NS(=O)(=O)NC1(C#Cc2cc(F)c(C(=O)N3CC(=O)N(O)C3c3cc(Br)cs3)c(F)c2)CC1` (stereo not drawn) [Example 90, 2-(4-Bromo-2-thienyl)-1-[2,6-difluoro-4-[2-[1-(sulfamoylamino)cyclopropyl]ethynyl]benzoyl]-3-hydroxy-4-oxo-imidazolidine] belongs no more than 1000 nM; to `CS(=O)(=O)NCc1cc(F)c(C(=O)N2CC(=O)N(O)C2c2cc(Br)cs2)c(F)c1` (stereo not drawn) [Example 91, N-[[4-[2-(4-Bromo-2-thienyl)-3-hydroxy-4-oxo-imidazolidine-1-carbonyl]-3,5-difluoro-phenyl]methyl]methanesulfonamide], no more than 1000 nM; to `O=C1CN(C(=O)c2c(F)cc(CCC3CCCCC3)cc2F)C(c2cc(Br)cs2)N1O` (stereo not drawn) [Example 92, 2-(4-Bromo-2-thienyl)-1-[4-(2-cyclohexylethyl)-2,6-difluoro-benzoyl]-3-hydroxy-imidazolidin-4-one], ≤ 5000 nM and 1000 to 5000 nM.
Regarding `NS(=O)(=O)NCCCc1cc(F)c(C(=O)N2CC(=O)N(O)C2c2cc(Br)cs2)c(F)c1` (stereo not drawn) [Example 93, 2-(4-Bromo-2-thienyl)-1-[2,6-difluoro-4-[3-(sulfamoylamino)propyl]benzoyl]-3-hydroxy-4-oxo-imidazolidine], the half-inhibitory concentration (IC50) is no more than 1000 nM.
To `CC(C)C=Cc1cc(F)c(C(=O)N2CC(=O)N(O)C2c2cc(Br)cs2)c(F)c1` (stereo not drawn) [Example 94, 2-(4-Bromo-2-thienyl)-1-[2,6-difluoro-4-[3-methylbut-1-enyl]benzoyl]-3-hydroxy-imidazolidin-4-one] belongs no more than 1000 nM; to `CC(C)CCc1cc(F)c(C(=O)N2CC(=O)N(O)C2c2cc(Br)cs2)c(F)c1` (stereo not drawn) [Example 95, 2-(4-Bromo-2-thienyl)-1-(2,6-difluoro-4-isopentyl-benzoyl)-3-hydroxy-imidazolidin-4-one], ≤ 5000 nM and 1000 to 5000 nM; to `O=C1CN(C(=O)c2c(F)cc(-c3cn[nH]c3)cc2F)C(c2cc(Br)cs2)N1O` (stereo not drawn) [Example 96, 2-(4-bromo-2-thienyl)-1-[2,6-difluoro-4-(1H-pyrazol-4-yl)benzoyl]-3-hydroxy-imidazolidin-4-one], no more than 1000 nM.
To `CN(C)c1cc(F)c(C(=O)N2CC(=O)N(O)C2c2cc(Br)cs2)c(F)c1` (stereo not drawn) [Example 97, 2-(4-Bromo-2-thienyl)-1-[4-(dimethylamino)-2,6-difluoro-benzoyl]-3-hydroxy-imidazolidin-4-one] belongs ≤ 5000 nM and 1000 to 5000 nM.
For `O=C1CN(C(=O)c2ccccc2F)C(c2csc(Br)c2)N1O` (stereo not drawn) [Example 98, 2-(5-Bromo-3-thienyl)-1-(2-fluorobenzoyl)-3-hydroxy-imidazolidin-4-one], the IC50 was no more than 1000 nM.
The figure for `O=C1CN(C(=O)c2c(F)cccc2Cl)C(c2csc(Br)c2)N1O` (stereo not drawn) [Example 99, 2-(5-Bromo-3-thienyl)-1-(2-chloro-6-fluoro-benzoyl)-3-hydroxy-imidazolidin-4-one] is no more than 1000 nM; for `O=C1CN(C(=O)c2c(F)cccc2C(F)(F)F)C(c2csc(Br)c2)N1O` (stereo not drawn) [Example 100, 2-(5-Bromo-3-thienyl)-1-[2-fluoro-6-(trifluoromethyl)benzoyl]-3-hydroxy-imidazolidin-4-one] it is ≤ 5000 nM and 1000 to 5000 nM.
The figure for `O=C1CN(C(=O)c2c(F)ccc(Br)c2F)C(c2csc(Br)c2)N1O` (stereo not drawn) [Example 101, 1-(3-Bromo-2,6-difluoro-benzoyl)-2-(5-bromo-3-thienyl)-3-hydroxy-imidazolidin-4-one] is no more than 1000 nM; for `Cc1ccc(F)c(C(=O)N2CC(=O)N(O)C2c2csc(Br)c2)c1F` (stereo not drawn) [Example 102, 2-(5-Bromo-3-thienyl)-1-(2,6-difluoro-3-methyl-benzoyl)-3-hydroxy-imidazolidin-4-one] it is no more than 1000 nM; for `O=C1CN(C(=O)c2c(F)ccc(C(F)(F)F)c2F)C(c2csc(Br)c2)N1O` (stereo not drawn) [Example 103, 2-(5-Bromo-3-thienyl)-1-[2,6-difluoro-3-(trifluoromethyl)benzoyl]-3-hydroxy-imidazolidin-4-one] it is no more than 1000 nM.
To `COc1ccc(F)c(C(=O)N2CC(=O)N(O)C2c2csc(Br)c2)c1F` (stereo not drawn) [Example 104, 2-(5-Bromo-3-thienyl)-1-(2,6-difluoro-3-methoxy-benzoyl)-3-hydroxy-imidazolidin-4-one] belongs no more than 1000 nM; to `Nc1ccc(F)c(C(=O)N2CC(=O)N(O)C2c2cc(Br)cs2)c1F` (stereo not drawn) [Example 105, 1-(3-Amino-2,6-difluoro-benzoyl)-2-(4-bromo-2-thienyl)-3-hydroxy-imidazolidin-4-one], no more than 1000 nM.
For `O=C1CN(C(=O)c2c(F)ccc([N+](=O)[O-])c2F)C(c2cc(Br)cs2)N1O` (stereo not drawn) [Example 106, 2-(4-Bromo-2-thienyl)-1-(2,6-difluoro-3-nitro-benzoyl)-3-hydroxy-imidazolidin-4-one], the IC50 is no more than 1000 nM.
To `CS(=O)(=O)Nc1ccc(F)c(C(=O)N2CC(=O)N(O)C2c2cc(Br)cs2)c1F` (stereo not drawn) [Example 107, N-[3-[2-(4-bromo-2-thienyl)-3-hydroxy-4-oxo-imidazolidine-1-carbonyl]-2,4-difluoro-phenyl]methanesulfonamide] belongs no more than 1000 nM.
